Reference: PubChem BioAssay AID2060605 (Molecular Pharmacology Branch, DTP, NCI, 2025)

Test system: 947758-054-R-J2-PDC spheroid growth, percent test/control
Assay: Anticancer human tumor 947758-054-R-J2-PDC patient-derived colon adenocarcinoma cell line growth inhibition [CLK]
Conditions: spheroids with HUVEC and MSC; for IC50: curve of first compound; for viability, T/C: stronger effect = lower value
Procedure, shortened: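 Multi-cell-type spheroids combined patient-derived tumor cells with HUVEC endothelial cells and human mesenchymal stem cells. Paired agents were dosed in half-log steps down from about clinical Cmax, or from 10 microM where Cmax was unknown.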

[1] = second compound 0.0316 µM, first compound 0.0316 µM
[2] = second compound 0.0316 µM, first compound 0.1 µM
[3] = second compound 0.0316 µM, first compound 0.316 µM
[4] = second compound 0.0316 µM, first compound 1 µM
[5] = second compound 0.0316 µM, first compound 3.16 µM
[6] = second compound 0.0316 µM, first compound 10 µM
[7] = second compound 0.1 µM, first compound 0.0316 µM
[8] = second compound 0.1 µM, first compound 0.1 µM
[9] = second compound 0.1 µM, first compound 0.316 µM
[10] = second compound 0.1 µM, first compound 1 µM
[11] = second compound 0.1 µM, first compound 3.16 µM
[12] = second compound 0.1 µM, first compound 10 µM
[13] = second compound 0.316 µM, first compound 0.0316 µM
[14] = second compound 0.316 µM, first compound 0.1 µM
[15] = second compound 0.316 µM, first compound 0.316 µM
[16] = second compound 0.316 µM, first compound 1 µM
[17] = second compound 0.316 µM, first compound 3.16 µM
[18] = second compound 0.316 µM, first compound 10 µM
[19] = second compound 1 µM, first compound 0.0316 µM
[20] = second compound 1 µM, first compound 0.1 µM
[21] = second compound 1 µM, first compound 0.316 µM
[22] = second compound 1 µM, first compound 1 µM
[23] = second compound 1 µM, first compound 3.16 µM
[24] = second compound 1 µM, first compound 10 µM
[25] = second compound 3.16 µM, first compound 0.0316 µM
[26] = second compound 3.16 µM, first compound 0.1 µM
[27] = second compound 3.16 µM, first compound 0.316 µM
[28] = second compound 3.16 µM, first compound 1 µM
[29] = second compound 3.16 µM, first compound 3.16 µM
[30] = second compound 3.16 µM, first compound 10 µM
[31] = second compound 10 µM, first compound 0.0316 µM
[32] = second compound 10 µM, first compound 0.1 µM
[33] = second compound 10 µM, first compound 0.316 µM
[34] = second compound 10 µM, first compound 1 µM
[35] = second compound 10 µM, first compound 3.16 µM
[36] = second compound 10 µM, first compound 10 µM
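Further: spheroids exposed to compounds for one week before readout.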
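Wherever viability, T/C is given: 100% = DMSO vehicle control wells.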

With `C=CC(=O)Nc1cc(Nc2nccc(-c3cn(C)c4ccccc34)n2)c(OC)cc1N(C)CCN(C)C` + CNC(=O)c1ccc(Nc2nc(OC3CCCC3)c3c(-c4ccc5nc(C)oc5c4)c[nH]c3n2)c(OC)c1 the IC50 (second compound 0.0316 µM) was > 300 nM, the IC50 (second compound 0.1 µM) was > 300 nM and the IC50 (second compound 0.316 µM) was 251 nM. The IC50 (second compound 1 µM) was 122 nM, the IC50 (second compound 3.16 µM) was < 0.949 nM and the IC50 (second compound 10 µM) was < 0.949 nM. For the same molecule, the viability, T/C (second compound 0.0316 µM, first compound 0.000949 µM) was 90%, the viability, T/C (second compound 0.0316 µM, first compound 0.003 µM) was 78.9% and the viability, T/C (second compound 0.0316 µM, first compound 0.00949 µM) was 80.4%. The viability, T/C (second compound 0.0316 µM, first compound 0.03 µM) was 94.6%, the viability, T/C (second compound 0.0316 µM, first compound 0.0949 µM) was 86.2% and the viability, T/C (second compound 0.0316 µM, first compound 0.3 µM) was 64%. For the same molecule, the viability, T/C (second compound 0.1 µM, first compound 0.000949 µM) was 102%, the viability, T/C (second compound 0.1 µM, first compound 0.003 µM) was 94.9% and the viability, T/C (second compound 0.1 µM, first compound 0.00949 µM) was 83.7%. It also gave a viability, T/C (second compound 0.1 µM, first compound 0.03 µM) of 87.9%, a viability, T/C (second compound 0.1 µM, first compound 0.0949 µM) of 78.1% and a viability, T/C (second compound 0.1 µM, first compound 0.3 µM) of 52.5%. For the same molecule, the viability, T/C (second compound 0.316 µM, first compound 0.000949 µM) was 88.2%, the viability, T/C (second compound 0.316 µM, first compound 0.003 µM) was 81.8% and the viability, T/C (second compound 0.316 µM, first compound 0.00949 µM) was 65.8%. For the same molecule, the viability, T/C (second compound 0.316 µM, first compound 0.03 µM) was 96.3%, the viability, T/C (second compound 0.316 µM, first compound 0.0949 µM) was 108% and the viability, T/C (second compound 0.316 µM, first compound 0.3 µM) was 43.1%. The viability, T/C (second compound 1 µM, first compound 0.000949 µM) was 70.2%, the viability, T/C (second compound 1 µM, first compound 0.003 µM) was 53.1% and the viability, T/C (second compound 1 µM, first compound 0.00949 µM) was 47.1%. It also gave a viability, T/C (second compound 1 µM, first compound 0.03 µM) of 52%, a viability, T/C (second compound 1 µM, first compound 0.0949 µM) of 62.8% and a viability, T/C (second compound 1 µM, first compound 0.3 µM) of 25.4%. The viability, T/C (second compound 3.16 µM, first compound 0.000949 µM) was 48.9%, the viability, T/C (second compound 3.16 µM, first compound 0.003 µM) was 44.4% and the viability, T/C (second compound 3.16 µM, first compound 0.00949 µM) was 44.8%. It also gave a viability, T/C (second compound 3.16 µM, first compound 0.03 µM) of 44%, a viability, T/C (second compound 3.16 µM, first compound 0.0949 µM) of 39.5% and a viability, T/C (second compound 3.16 µM, first compound 0.3 µM) of 23.1%. It also gave a viability, T/C (second compound 10 µM, first compound 0.000949 µM) of 39.8%, a viability, T/C (second compound 10 µM, first compound 0.003 µM) of 39.5% and a viability, T/C (second compound 10 µM, first compound 0.00949 µM) of 42.7%. For the same molecule, the viability, T/C (second compound 10 µM, first compound 0.03 µM) was 35.2%, the viability, T/C (second compound 10 µM, first compound 0.0949 µM) was 20.9% and the viability, T/C (second compound 10 µM, first compound 0.3 µM) was 18.3%.
`Nc1ccccc1NC(=O)c1ccc(CNC(=O)OCc2cccnc2)cc1` + CN1CCN(c2cc(C(=O)Nc3cc4cc(-c5cnn(C)c5)ccc4cn3)ccn2)CC1 was tested, and the IC50 (second compound 0.0316 µM) was 4620 nM, the IC50 (second compound 0.1 µM) was 2700 nM and the IC50 (second compound 0.316 µM) was < 31.6 nM. The IC50 (second compound 1 µM) was < 31.6 nM, the IC50 (second compound 3.16 µM) was < 31.6 nM and the IC50 (second compound 10 µM) was < 31.6 nM. For the same molecule, the viability, T/C [1] was 133%, the viability, T/C [2] was 136% and the viability, T/C [3] was 153%. For the same molecule, the viability, T/C [4] was 166%, the viability, T/C [5] was 70.3% and the viability, T/C [6] was 8.87%. For the same molecule, the viability, T/C [7] was 188%, the viability, T/C [8] was 178% and the viability, T/C [9] was 190%. The viability, T/C [10] was 129%, the viability, T/C [11] was 39.4% and the viability, T/C [12] was 4.71%. The viability, T/C [13] was 2.88%, the viability, T/C [14] was 6% and the viability, T/C [15] was 2.2%. For the same molecule, the viability, T/C [16] was 0.82%, the viability, T/C [17] was 1.3% and the viability, T/C [18] was 0.07%. For the same molecule, the viability, T/C [19] was 0.15%, the viability, T/C [20] was 0.18% and the viability, T/C [21] was 0.2%. The viability, T/C [22] was 0.12%, the viability, T/C [23] was 0.57% and the viability, T/C [24] was 2.05%. The viability, T/C [25] was 0.21%, the viability, T/C [26] was 0.63% and the viability, T/C [27] was 0.29%. The viability, T/C [28] was 0.28%, the viability, T/C [29] was 0.32% and the viability, T/C [30] was 2.87%. It also gave a viability, T/C [31] of 0.31%, a viability, T/C [32] of 0.32% and a viability, T/C [33] of 1.85%. It also gave a viability, T/C [34] of 0.43%, a viability, T/C [35] of 0.45% and a viability, T/C [36] of 2.2%.
`CCCS(=O)(=O)Nc1ccc(F)c(C(=O)c2c[nH]c3ncc(-c4ccc(Cl)cc4)cc23)c1F` + CNC(=O)c1ccc(Nc2nc(OC3CCCC3)c3c(-c4ccc5nc(C)oc5c4)c[nH]c3n2)c(OC)c1 was tested, and the IC50 (second compound 0.0316 µM) was < 31.6 nM, the IC50 (second compound 0.1 µM) was < 31.6 nM and the IC50 (second compound 0.316 µM) was 32.6 nM. The IC50 (second compound 1 µM) was < 31.6 nM, the IC50 (second compound 3.16 µM) was < 31.6 nM and the IC50 (second compound 10 µM) was < 31.6 nM. For the same molecule, the viability, T/C [1] was 39.4%, the viability, T/C [2] was 44.1% and the viability, T/C [3] was 31.6%. The viability, T/C [4] was 53.5%, the viability, T/C [5] was 47.7% and the viability, T/C [6] was 31.5%. It also gave a viability, T/C [7] of 45.5%, a viability, T/C [8] of 37.9% and a viability, T/C [9] of 29%. For the same molecule, the viability, T/C [10] was 28.2%, the viability, T/C [11] was 24.6% and the viability, T/C [12] was 17.2%. It also gave a viability, T/C [13] of 50.4%, a viability, T/C [14] of 33.6% and a viability, T/C [15] of 18.8%. The viability, T/C [16] was 22.5%, the viability, T/C [17] was 23.9% and the viability, T/C [18] was 11.2%. The viability, T/C [19] was 37.6%, the viability, T/C [20] was 25.5% and the viability, T/C [21] was 16.9%. For the same molecule, the viability, T/C [22] was 13.6%, the viability, T/C [23] was 14.4% and the viability, T/C [24] was 4.09%. For the same molecule, the viability, T/C [25] was 30.2%, the viability, T/C [26] was 20.7% and the viability, T/C [27] was 15.7%. It also gave a viability, T/C [28] of 13.1%, a viability, T/C [29] of 10% and a viability, T/C [30] of 4.82%. For the same molecule, the viability, T/C [31] was 24.2%, the viability, T/C [32] was 20.9% and the viability, T/C [33] was 14.4%. The viability, T/C [34] was 13.6%, the viability, T/C [35] was 9.07% and the viability, T/C [36] was 4.26%.
